Assays:
[1] = Study No. 15-4 toxicokinetics of fospropofol and propofol in plasma; assay type: in vivo, Beagle dogs; details: for Propofol AUC0-6hr increase after 14 days compared with Day 1 / Propofol Cmax increase after 14 days compared with Day 1: 160-mg/kg
Protocol: The purpose of Study No. 15-4 (GLP) was to determine the potential toxicity of fospropofol in Beagle dogs when administered once daily by oral gavage for 14 days. […] Because the treatment-related clinical observations (consistent with the expected transient sedative actions of fospropofol) and effects on hematology and clinical chemistry parameters were considered nonadverse, the NOAEL was determined to be 160 mg/kg/day (3200 mg/m^2/day).

[2] = Study A16 Part 2: PK of a single dose of 1200 mg fospropofol disodium following a high-fat meal; assay type: in vivo, human
Protocol: Part 2 of Study A16 was a double-blind, placebo-controlled, single-close pilot study to investigate the PK, safety, and tolerability of 1200 mg of fospropofol disodium administered to healthy adult men and women following a high-fat meal.
Subjects were healthy adults (age 18-55 years inclusive, BMI 18-29.9 kg/m^2). A separate cohort of 15 subjects was randomly assigned to receive a single oral dose of either fospropofol disodium (n=12) or matching placebo (n=3) within 30 minutes (±1 minute) after the start of a standardized high-fat meal.
Subjects were admitted to the clinical unit for an overnight fast (Day −1), administered study drug on Day 1 within 30 minutes of the start a standardized high-fat meal, and remained in the clinical unit until Day 2.
Fospropofol disodium was formulated as powder in 6 HPMC capsules, each capsule containing 200 mg of fospropofol disodium (weight adjusted for water content). Placebo was administered as 6 matching capsules.

[3] = Study A16 Part 1: PK of single ascending oral doses of fospropofol disodium (200 to 2000 mg), fasted healthy adults; assay type: in vivo, human; details: for AUC(0-inf) / Cmax / Tmax / AUC(0-t) / half-life: both sexes, human, plasma
Protocol: Part 1 of Study A16 was a double-blind, randomized, placebo-controlled study to investigate the safety-tolerability and PK of oral administration of single ascending doses of fospropofol disodium to healthy adult male and female volunteers.
Subjects were healthy adults (age 18-55 years inclusive, BMI 18-29.9 kg/m^2). Separate cohorts of 12 subjects each were randomized to receive fospropofol disodium at doses of 200, 400, 800, 1000, 1200, 1600, or 2000 mg (n=10 per cohort) or matching placebo (n=2 per cohort).
Subjects were admitted to the clinical unit for an overnight fast (Day −1), administered study drug on Day 1, and remained in the clinical unit until Day 2.
Fospropofol disodium was formulated as powder in an HPMC capsule, each capsule containing 200 mg of fospropofol disodium (weight adjusted for water content). Placebo was administered as an appropriate number of matching capsules.
Based on PK results from the early cohorts, sampling times were optimized beginning with Cohort 3 (800 mg) to preclose, 5, 10, 15, 20, 25, 30, 37, and 45, minutes and 1, 2, 4, 6, and 9 hours after closing.

[4] = 200, 400, 800, and 1000 mg cohorts
[5] = oral fospropofol disodium 200 mg, mean
[6] = oral fospropofol disodium 400 mg, mean
[7] = oral fospropofol disodium 800 mg, mean
[8] = oral fospropofol disodium 1000 mg, mean, n = 9
[9] = oral fospropofol disodium 1600 mg, mean
[10] = oral fospropofol disodium 2000 mg, mean

SMILES: CC(C)c1cccc(C(C)C)c1O [propofol, 2,6-diisopropylphenol]
- Propofol AUC0-6hr increase after 14 days compared with Day 1 ([1]; females): over 5 fold
- Propofol Cmax increase after 14 days compared with Day 1 ([1]; females): ~3 fold
- Propofol AUC0-6hr increase after 14 days compared with Day 1 ([1]; males): over 2 fold
- Propofol Cmax increase after 14 days compared with Day 1 ([1]; males): about 7 fold
- Tmax ([1]; Beagle, dog, plasma, po, Propofol Tmax, most groups): 5 to 60 min
- Increase of propofol Cmax and AUC0-6hr with dose ([1]; Day 1, both sexes): close proportional
- Increase of propofol Cmax and AUC0-6hr with dose ([1]; Day 14, both sexes): more than close proportional
- half-life ([1]; female, Beagle, dog, plasma, po, females): 30 to 78 min
- half-life ([1]; male, Beagle, dog, plasma, po, males): 48 to 108 min
- Propofol mean AUC following a high-fat meal relative to fasting ([2]; 1200 mg): approximately 40%
- Propofol mean Cmax under fed conditions relative to fasting ([2]; 1200 mg): approximately 19%
- Effect of high-fat meal on exposure ([2]; 1200 mg within 30 minutes after the start of a high-fat meal): significant reduction in exposure
- Tmax ([2]; both sexes, human, plasma, oral, 1200 mg, after a high-fat meal): 120 min
- Propofol CL/F ([2]; oral fospropofol disodium 1200 mg, Fed (Cohort 8), n = 7/12, mean): 3111 L/h
- Dose proportionality of propofol AUC0-2h and Cmax ([3]; 200 mg to 2000 mg): close proportional
- Dose proportionality of propofol AUC0-T and AUC0-∞ ([3]; 200 mg to 2000 mg): slightly greater than close-proportional
- Highest observed propofol Cmax relative to the mean Cmax of the cohort [3, 4]: greater than 2 times
- Highest observed propofol Cmax: standard deviations above the cohort mean [3, 4]: greater than 2 standard deviations
- Dose proportionality of propofol exposure (both Cmax and AUC) ([3]; 200 to 2000 mg, preliminary PK data): approximately close proportional
- Highest observed propofol Cmax relative to mean Cmax ([3]; 800-mg cohort): approximately 3.7 fold
- AUC(0-inf) ([3]; oral, 200 mg, Propofol AUC0-inf (arithmetic mean, n=10), after a single 200-mg capsule): 118 ng·h/mL
- AUC(0-inf) ([3]; oral, 200 mg, Propofol AUC0-inf (geometric mean, n=10), after a single 200-mg capsule): 112 ng·h/mL
- Cmax ([3]; oral, 200 mg, Propofol Cmax (arithmetic mean, n=10), after a single 200-mg capsule): 69.4 ng/mL
- Cmax ([3]; oral, 200 mg, Propofol Cmax (geometric mean, n=10), after a single 200-mg capsule): 61.7 ng/mL
- Tmax ([3]; oral, 200 mg, Propofol median Tmax, 200-mg dose): 30 min
- Cmax ([3]; oral, 800 mg, Highest observed propofol Cmax, 800-mg cohort): 1350 ng/mL
- Cmax ([3]; oral, 800 mg, Mean propofol Cmax, 800 mg cohort): 362 ng/mL
- AUC(0-inf) ([3]; oral, 800 mg, Propofol AUC0-inf (arithmetic mean, n=10), single dose of 800 mg (four 200 mg capsules)): 559 ng·h/mL
- Cmax ([3]; oral, 800 mg, Propofol Cmax (arithmetic mean, n=10), single dose of 800 mg (four 200 mg capsules)): 362 ng/mL
- Tmax ([3]; oral, 1200 mg, Propofol Tmax (median), fasting conditions): 37 min
- Tmax ([3]; oral, 2000 mg, Propofol median Tmax, doses of 1600 or 2000 mg): 45 min
- AUC(0-inf) ([3]; po, 200 mg, Propofol AUC0-∞, oral fospropofol disodium 200 mg, mean): 118 ng·h/mL
- Cmax ([3]; po, 200 mg, Propofol Cmax Maximum, oral fospropofol disodium 200 mg): 191 ng/mL
- Cmax ([3]; po, 200 mg, Propofol Cmax Mean (SD), oral fospropofol disodium 200 mg): 69 ng/mL
- Cmax ([3]; po, 200 mg, Propofol Cmax Minimum, oral fospropofol disodium 200 mg): 35.1 ng/mL
- Cmax ([3]; po, 200 mg, Propofol Cmax, oral fospropofol disodium 200 mg, mean): 69 ng/mL
- Tmax ([3]; po, 200 mg, Propofol Tmax, oral fospropofol disodium 200 mg, median): 30 min
- AUC(0-inf) ([3]; po, 400 mg, Propofol AUC0-∞, oral fospropofol disodium 400 mg, mean): 298 ng·h/mL
- Cmax ([3]; po, 400 mg, Propofol Cmax Maximum, oral fospropofol disodium 400 mg): 499 ng/mL
- Cmax ([3]; po, 400 mg, Propofol Cmax Mean (SD), oral fospropofol disodium 400 mg): 201 ng/mL
- Cmax ([3]; po, 400 mg, Propofol Cmax Minimum, oral fospropofol disodium 400 mg): 33.5 ng/mL
- Cmax ([3]; po, 400 mg, Propofol Cmax, oral fospropofol disodium 400 mg, mean): 201 ng/mL
- Tmax ([3]; po, 400 mg, Propofol Tmax, oral fospropofol disodium 400 mg, median): 30 min
- AUC(0-inf) ([3]; po, 800 mg, Propofol AUC0-∞, oral fospropofol disodium 800 mg, mean): 577 ng·h/mL
- Cmax ([3]; po, 800 mg, Propofol Cmax Maximum, oral fospropofol disodium 800 mg): 1350 ng/mL
- Cmax ([3]; po, 800 mg, Propofol Cmax Mean (SD), oral fospropofol disodium 800 mg): 362 ng/mL
- Cmax ([3]; po, 800 mg, Propofol Cmax Minimum, oral fospropofol disodium 800 mg): 127 ng/mL
- Cmax ([3]; po, 800 mg, Propofol Cmax, oral fospropofol disodium 800 mg, mean): 362 ng/mL
- Tmax ([3]; po, 800 mg, Propofol Tmax, oral fospropofol disodium 800 mg, median): 37.2 min
- AUC(0-inf) ([3]; po, 1000 mg, Propofol AUC0-∞, oral fospropofol disodium 1000 mg, mean, n = 9): 887 ng·h/mL
- Cmax ([3]; po, 1000 mg, Propofol Cmax Maximum, oral fospropofol disodium 1000 mg, n = 9): 681 ng/mL
- Cmax ([3]; po, 1000 mg, Propofol Cmax Mean (SD), oral fospropofol disodium 1000 mg, n = 9): 403 ng/mL
- Cmax ([3]; po, 1000 mg, Propofol Cmax Minimum, oral fospropofol disodium 1000 mg, n = 9): 267 ng/mL
- Cmax ([3]; po, 1000 mg, Propofol Cmax, oral fospropofol disodium 1000 mg, mean, n = 9): 403 ng/mL
- Tmax ([3]; po, 1000 mg, Propofol Tmax, oral fospropofol disodium 1000 mg, median, n = 9): 45 min
- Cmax ([3]; po, 1200 mg, Propofol Cmax Maximum, oral fospropofol disodium 1200 mg): 1190 ng/mL
- Cmax ([3]; po, 1200 mg, Propofol Cmax Mean (SD), oral fospropofol disodium 1200 mg): 641 ng/mL
- Cmax ([3]; po, 1200 mg, Propofol Cmax Minimum, oral fospropofol disodium 1200 mg): 193 ng/mL
- Cmax ([3]; po, 1600 mg, Propofol Cmax Maximum, oral fospropofol disodium 1600 mg): 1170 ng/mL
- Cmax ([3]; po, 1600 mg, Propofol Cmax Mean (SD), oral fospropofol disodium 1600 mg): 748 ng/mL
- Cmax ([3]; po, 1600 mg, Propofol Cmax Minimum, oral fospropofol disodium 1600 mg): 229 ng/mL
- AUC(0-inf) ([3]; po, 2000 mg, Propofol AUC0-∞, oral fospropofol disodium 2000 mg, mean): 2250 ng·h/mL
- Cmax ([3]; po, 2000 mg, Propofol Cmax Maximum, oral fospropofol disodium 2000 mg): 1620 ng/mL
- Cmax ([3]; po, 2000 mg, Propofol Cmax Mean (SD), oral fospropofol disodium 2000 mg): 806 ng/mL
- Cmax ([3]; po, 2000 mg, Propofol Cmax Minimum, oral fospropofol disodium 2000 mg): 200 ng/mL
- Cmax ([3]; po, 2000 mg, Propofol Cmax, oral fospropofol disodium 2000 mg, mean): 806 ng/mL
- Tmax ([3]; po, 2000 mg, Propofol Tmax, oral fospropofol disodium 2000 mg, median): 45 min
- AUC(0-t) [3, 5]: 103 ng·h/mL
- half-life [3, 5]: 228 min
- AUC(0-t) [3, 6]: 276 ng·h/mL
- half-life [3, 6]: 176 min
- AUC(0-t) [3, 7]: 551 ng·h/mL
- half-life [3, 7]: 116 min
- AUC(0-t) [3, 8]: 846 ng·h/mL
- half-life [3, 8]: 121 min
- half-life [3, 9]: 177 min
- AUC(0-t) [3, 10]: 2000 ng·h/mL
- half-life [3, 10]: 118 min
- Propofol concentration relative to Cmax ([3]; by 4 hours after dosing): less than 25 % of Cmax
- Propofol Cmax CV ([3]; oral fospropofol disodium 200 mg): 64%
- Propofol CL/F [3, 5]: 1889 L/h
- Propofol Cmax CV ([3]; oral fospropofol disodium 400 mg): 63%
- Propofol CL/F [3, 6]: 1658 L/h
- Propofol Cmax CV ([3]; oral fospropofol disodium 800 mg): 99%
- Propofol CL/F [3, 7]: 1561 L/h
- Propofol CL/F [3, 8]: 1213 L/h
- Propofol Cmax CV ([3]; oral fospropofol disodium 1000 mg, n = 9): 30%
- Propofol Cmax CV ([3]; oral fospropofol disodium 1200 mg): 46%
- Propofol CL/F ([3]; oral fospropofol disodium 1200 mg, Fasted (Cohort 5), n = 10, mean): 1260 L/h
- Propofol CL/F ([3]; oral fospropofol disodium 1200 mg, mean): 1260 L/h
- Propofol Cmax CV ([3]; oral fospropofol disodium 1600 mg): 44%
- Propofol CL/F [3, 9]: 1182 L/h
- Propofol Cmax CV ([3]; oral fospropofol disodium 2000 mg): 51%
- Propofol CL/F [3, 10]: 933 L/h
